Test results from US20260216154A1, “POTASSIUM CHANNEL BLOCKERS OR DERIVATIVES THEREOF FOR PREVENTING, ALLEVIATING, AND/OR TREATING MORBIDITY AND MORTALITY INDUCED BY PATHOGENS OR OTHER INDUCERS OF IMMUNE […]/OR EXCESS IMMUNE ACTIVATI” (University of Rochester, priority 2023, published 2026).
“Also recorded” adds a separate entry of the source.

Columns and labels:
influenza virus (x31) = format: in vivo, mice
[1] = test system: non-neurotropic, non-lethal influenza virus (x31 strain); format: in vivo, mice; conditions: accelerating rod, three consecutive runs

Compound: Nc1ccncc1 [4-AP, 4-aminopyridine]
- mice surviving until at least Day 14 (survivors/treated) (influenza virus (x31); […], 4-AP 1.5 mg/kg, corticosteroid 1 mg/kg, N=7/group): 7/7
- influenza-induced weight loss (in words) (influenza virus (x31); mouse, in vivo): lesser weight loss; also recorded: attenuated
- survival of infected ATM KO mice (in words) (influenza virus (x31); mouse, in vivo): complete rescue from death
- animals showing a decreased time to fall on the rotarod [1]: 27%
